From patent publication US20060088815A1, “Method for evaluation of endocrine disruptive action” (THE UNIVERSITY OF TOKYO, priority 2004, published 2006)

Test system: hippocampal tissue slice
Test: Excitatory postsynaptic potential of hippocampal tissue slices on a multiple-electrode probe; NMDA-induced long-term depression
Assay type: cell-based, rat
Conditions: substance 1 nM perfused for 30 minutes before NMDA (30 μM, 3 minutes)
Excerpt: Now, an example of a specific embodiment for the above-mentioned evaluating method 1 will be illustrated. First, the preparation of a cell group and a setting method of experimental conditions are explained below. With regard to the cell group, a tissue slice which was a transversely cut in a hippocampal region along a long-axis which was cut out from a brain tissue of an adult rat using a vibratome (DSK ZERO 1; manufactured by Dosaka EM K.K.) was used. Thickness of the hippocampal tissue slice was made 300 μm.
For the measurement of an electrophysiological response of this hippocampal tissue slice, a multiple-electrode measuring apparatus MED 64 System (Alpha Med) was used. With regard to an electrode arranged in the hippocampal tissue slice, a multiple-electrode probe MED-P530A (Alpha Med) attached to this multiple-electrode measuring apparatus was used. On a substrate of this multiple-electrode probe, plural electrodes are previously arranged regularly with a predetermined interval (300 μm).
One sheet of the hippocampal tissue slice cut out by a vibratome was allowed to stand in a chamber placed on a substrate of one multiple-electrode probe and, at the same time, an artificial cerebrospinal fluid sufficiently saturated with a mixed gas of oxygen and carbon dioxide (95% oxygen gas and 5% carbon dioxide gas) was filled in the chamber whereby the hippocampal tissue slice was soaked in the artificial cerebrospinal fluid followed by being allowed to stand at room temperature for 1 hour or longer. With regard to the artificial cerebrospinal fluid, an aqueous solution containing 124 mM of NaCl, 1.25 mM of NaH2PO4.2H2O, 5 mM of KCl, 2 mM of MgSO4.7H2O, 2 mM of CaCl2, 22 mM of NaHCO3 and 10 mM of […] was used.
In this artificial cerebrospinal fluid, the hippocampal tissue slice was placed on the multiple-electrode probe so that the cells included in each of three regions comprising one dentate gyrus and two cornu ammonis regions near the surface of the hippocampal tissue slice were brought into contact with plural electrodes on the multiple-electrode probe. Thus, a stimulating electrode which applies electrical stimulation to presynaptic fiber projecting to the nerve cell group and a recording electrode which records excitatory postsynaptic potential induced by the electrical stimulation in the nerve cell group as accumulated potential are arranged for each of pyramidal cells of cornu ammonis CA1 field, pyramidal cells of cornu ammonis CA3 field and granular cells of dentate gyrus.
Electrical stimulation to a hippocampal tissue slice by a stimulating electrode was carried out by repeated application of electrical stimulation at intervals of 15 seconds in the order of a stimulating electrode arranged in a cornu ammonis CA1 field, a stimulating electrode arranged in a cornu ammonis CA3 field, a stimulating electrode arranges in a dentate gyrus and, again, a stimulating electrode arranged in a cornu ammonis CA1 field. The excitatory postsynaptic potential induced by the electrical stimulation was recorded for about 30 minutes and, after confirming that the accumulated potential was stabilized, strength of electrical stimulation applied from the stimulating electrode was set in each of the following steps. […] When the strength of the measured accumulated potential was saturated (or became constant), the strength of the saturated accumulated potential was defined as maximum (100%) and strength of electrical stimulation to be applied to the hippocampal tissue slice from the stimulating electrode was set so as to make the value 50% of the above maximum value.
In this Example, DES was used as an object substance, estradiol, which is one example of estrogen, was used as an agonist to hormone receptor and NMDA was used as a stimulant. […]

Compound: CC/C(=C(/CC)c1ccc(O)cc1)c1ccc(O)cc1 [DES, diethylstilbestrol]
- excitatory postsynaptic potential 50 minutes after administration of NMDA, relative to that before administration of NMDA (cornu ammonis CA1 field): about 40%
- excitatory postsynaptic potential 50 minutes after administration of NMDA, relative to that before administration of NMDA (cornu ammonis CA3 field): about 75%
- excitatory postsynaptic potential 50 minutes after administration of NMDA, relative to that before administration of NMDA (dentate gyrus): about 68%

Compound: C[C@]12CC[C@@H]3c4ccc(O)cc4CC[C@H]3[C@@H]1CC[C@@H]2O [estradiol]
- excitatory postsynaptic potential 50 minutes after administration of NMDA, relative to that before administration of NMDA (cornu ammonis CA1 field): about 40%
- excitatory postsynaptic potential 50 minutes after administration of NMDA, relative to that before administration of NMDA (cornu ammonis CA3 field): about 55%
- excitatory postsynaptic potential 50 minutes after administration of NMDA, relative to that before administration of NMDA (dentate gyrus): about 80%
